Experimental data taken from publication PMC5796017, “Enantiomeric Effect of D-Amino Acid Substitution on the Mechanism of Action of α-Helical Membrane-Active Peptides” (International Journal of Molecular Sciences, 2017).
Converted amounts (≈) assume the structure as drawn.

Key:
[1] = system: P. aeruginosa ATCC27853; assay: Antimicrobial activity, microtiter dilution MIC; assay type: cell-based, Pseudomonas aeruginosa; conditions: G−; MH medium, 5 × 10^5 CFU/mL, 37 °C, 24 h, triplicate
Description: (§1) The antimicrobial activity of the peptides was determined by the standard microtiter dilution method and indicated as MIC (minimal inhibitory concentration) as described previously. Briefly, bacteria were cultured in Mueller–Hinton (MH) medium overnight at 37 °C, diluted to a final inoculum of 5 × 10^5 colony-forming units (CFU)/mL with MH and loaded into 96-well microtiter plates (90 μL/well) with serial dilution of peptides (10 μL/well), with a further incubation at 37 °C for 24 h. MIC was expressed as the lowest peptide concentration that inhibited the growth of bacteria. The antimicrobial assays were repeated in triplicate.

[2] = Circular dichroism (CD) secondary structure; assay type: physicochemical; conditions: for [θ]222, benign / [θ]222, 50% TFE: CD, 75 μM peptide, 25 °C; for [θ]222, benign: KP buffer (100 mM KCl, 50 mM KH2PO4/K2HPO4, pH 7.4); for [θ]222, 50% TFE / α-Helix (%), 50% TFE (relative helicity): KP buffer with 50% TFE; for α-Helix (%), 50% TFE (relative helicity) / α-Helix (%), benign: relative to molar ellipticity of V13K in 50% TFE; for α-Helix (%), benign: KP buffer
Excerpt: The influence of the amino acid substitutions on the peptide secondary structure were investigated using circular dichroism (CD) spectroscopy under benign conditions (KP buffer) and under conditions designed to mimic the hydrophobic environment of the membrane (KP buffer with 50% TFE). D-amino acid substitutions reduced the helicity of the peptide analogs relative to that of peptide V13K, in both KP buffer and KP buffer with 50% TFE. […] As shown in Table 2 and Figure S1, the values of the relative helicity of peptides with polar face substitutions are in the order of K14D (76.99%) > S11D/K14D (51.33%) > S11D/K14D/T15D (38.67%). Similarly, the relative helicity of the peptides with substitutions on the non-polar face follows the same trend: A12D (70.83%) > F9D/A12D (38.26%) > F9D/A12D/V16D (36.41%). Since the values of the relative helicity of the peptides with D-amino acid substitutions on the non-polar face were less than those peptide analogs with the same number of D-amino acid substitutions on the polar face, it is clear that the amino acid residues on the non-polar face may be more important for stabilizing the α-helical structure than residues on the polar face.
The secondary structures of the peptides were examined using a Jasco J-810 CD spectrometer (Jasco, Easton, MD, USA) at 25 °C as described previously. […] The mean residue molar ellipticities were calculated according to the equation [θ] = θ/10lCMn, in which, θ represents the ellipticity in millidegrees, l is the optical path length of the cuvette in centimeters, CM is the peptide concentration in mol/L, and n is the number of residues in the peptide. The mean residue molar ellipticities at 222 nm, [θ]222 (degree·cm^2·dmol^−1), were used to calculate the relative helical content of the peptides.

[3] = RP-HPLC retention time as relative hydrophobicity; assay type: physicochemical; conditions: 25 °C, used by the paper as measure of relative hydrophobicity
Description: The RP-HPLC retention time has been widely used to represent the relative hydrophobicity of peptides in many studies.The relative hydrophobicity of the peptides was determined by the RP-HPLC retention times at 25 °C. The change in hydrophobicity of the peptides caused by D-amino acid substitutions was mainly due to the disruption of the helical structure.

[4] = system: MIA PaCa-2; assay: MTT cell viability assay; assay type: cell-based, human; conditions: MIA PaCa-2, MTT, 24 h; mean ± SEM of three independent determinations
Description: (§2) HeLa, MIA PaCa-2, HPAC, and Bxpc-3 cells were maintained in Dulbecco’s modified Eagle medium) with 10% fetal bovine serum, penicillin (100 U/mL), and streptomycin ([…]) in a humid atmosphere at 37 °C with 5% CO2. The effect of the peptides on the survival of HeLa, MIA PaCa-2, HPAC, and Bxpc-3 cells was determined by 3-(4,5-dimethyl-2-thiazolyl)-2,5-diphenyl-2H-tetrazolium bromide (MTT) assay, as described in a previous study. Briefly, cells were seeded in 96-well plates at a density of 5000 per well. After overnight incubation, cells were incubated, in the absence, or presence of various concentrations of peptides for 24 h. Then, the formazan crystals formed by MTT were dissolved with dimethyl sulfoxide (DMSO) and the absorbance was determined at 492 nm with a microplate reader (GF-M3000; Gaomi Caihong Analytical Instruments Co., Shandong, China). The results were expressed as IC50 values, representing the concentration at which cell viability was reduced by 50%. The cytotoxicity assays were repeated in triplicate.

[5] = system: BxPC-3; assay: MTT cell viability assay; assay type: cell-based, human; conditions: BxPC-3, MTT, 24 h; mean ± SEM of three independent determinations
Description: as §2

[6] = system: HPAC; assay: MTT cell viability assay; assay type: cell-based, human; conditions: 24 h, mean ± SEM of three independent determinations
Description: as §2

[7] = system: HeLa; assay: MTT cell viability assay; assay type: cell-based, human; conditions: 24 h, mean ± SEM of three independent determinations
Description: as §2

[8] = system: S. aureus ATCC25923; assay: Antimicrobial activity, microtiter dilution MIC; assay type: cell-based, Staphylococcus aureus; conditions: G+; MH medium, 5 × 10^5 CFU/mL, 37 °C, 24 h, triplicate
Description: as §1

[9] = system: S. epidermidis ATCC12228; assay: Antimicrobial activity, microtiter dilution MIC; assay type: cell-based, Staphylococcus epidermidis; conditions: G+; MH medium, 5 × 10^5 CFU/mL, 37 °C, 24 h, triplicate
Description: as §1

[10] = system: E. coli ATCC25922; assay: Antimicrobial activity, microtiter dilution MIC; assay type: cell-based, Escherichia coli; conditions: G−; MH medium, 5 × 10^5 CFU/mL, 37 °C, 24 h, triplicate
Description: as §1

[11] = system: human red blood (hRBC) cells; assay: Hemolytic activity assay; assay type: cell-based; conditions: for MHC (minimal hemolytic concentration): 2% human RBC in PBS, 37 °C, 2 h, absorbance 578 nm, triplicate
Description: The […] of the peptides was measured by a hemolytic activity assay as described previously. Briefly, healthy human RBCs were collected using an anticoagulation tube with EDTAK2 and centrifuged at 1000 rpm for 5 min. The erythrocytes were washed three times, then diluted to a concentration of 2% in phosphate-buffered saline (PBS). The peptides were serially diluted in PBS and 70 μL of the peptide solutions and 2% RBC suspension were added simultaneously to each well of a 96-well plate (round bottom) for a further incubation at 37 °C for 2 h. Then, the plates were centrifuged for 10 min at 3000 rpm and the supernatant (90 μL) was transferred to a 96-well plate (flat bottom). The absorbance of the supernatant was measured on a microplate reader at 578 nm. Erythrocytes in PBS and distilled water were used as the negative (0%) and positive (100%) controls, respectively. The hemolytic activity was calculated as the percentage of experimental group over positive control (100%), after subtraction of negative control (0%). The hemolytic assays were repeated in triplicate.

## CC[C@H](C)[C@H](NC(=O)[C@H](C)NC(=O)[C@H](CCCCN)NC(=O)[C@H](CC(C)C)NC(=O)[C@H](C)NC(=O)[C@@H](NC(=O)[C@H](Cc1c[nH]cn1)NC(=O)[C@H](CC(C)C)NC(=O)[C@H](NC(=O)[C@@H](NC(=O)[C@H](CCCCN)NC(=O)[C@H](CCCCN)NC(=O)[C@@H](C)NC(=O)[C@H](CO)NC(=O)[C@H](CCCCN)NC(=O)[C@@H](Cc1ccccc1)NC(=O)[C@@H](NC(=O)[C@H](CCCCN)NC(=O)[C@H](CC(C)C)NC(=O)[C@H](Cc1ccccc1)NC(=O)[C@H](CO)NC(=O)[C@H](CCCCN)NC(=O)[C@H](Cc1c[nH]c2ccccc12)NC(=O)[C@H](CCCCN)NC(C)=O)[C@@H](C)O)[C@@H](C)O)C(C)C)[C@@H](C)O)C(=O)N[C@@H](CO)C(=O)N[C@@H](CO)C(N)=O [F9D/A12D/V16D]
[1]
  MIC: 125 µM (≈ 374 µg/mL)
[2]
  [θ]222, benign: −1907.83 degree·cm^2·dmol^−1
  [θ]222, 50% TFE: −18,393.1 degree·cm^2·dmol^−1
  α-Helix (%), 50% TFE (relative helicity): 36.41%
  α-Helix (%), benign: 3.8%
[3]
  tR (RP-HPLC retention time), relative hydrophobicity: 39.06 min
[4]
  IC50: 57.9 ± 2.8 µM
[5]
  IC50: 125 ± 1.8 µM
[6]
  IC50: 95.6 ± 1.8 µM
[7]
  IC50: 125 ± 3.4 µM
[8]
  MIC: 125 µM (≈ 374 µg/mL)
[9]
  MIC: 125 µM (≈ 374 µg/mL)
[10]
  MIC: 125 µM (≈ 374 µg/mL)
[11]
  MHC (minimal hemolytic concentration): >500 µM
[11]; human red blood cells
  Hemolytic activity compared with V13K: much less hemolytic activity than V13K

## CC[C@H](C)[C@H](NC(=O)[C@H](C)NC(=O)[C@H](CCCCN)NC(=O)[C@H](CC(C)C)NC(=O)[C@H](C)NC(=O)[C@@H](NC(=O)[C@H](Cc1c[nH]cn1)NC(=O)[C@H](CC(C)C)NC(=O)[C@@H](NC(=O)[C@@H](NC(=O)[C@H](CCCCN)NC(=O)[C@H](CCCCN)NC(=O)[C@@H](C)NC(=O)[C@H](CO)NC(=O)[C@H](CCCCN)NC(=O)[C@@H](Cc1ccccc1)NC(=O)[C@@H](NC(=O)[C@H](CCCCN)NC(=O)[C@H](CC(C)C)NC(=O)[C@H](Cc1ccccc1)NC(=O)[C@H](CO)NC(=O)[C@H](CCCCN)NC(=O)[C@H](Cc1c[nH]c2ccccc12)NC(=O)[C@H](CCCCN)NC(C)=O)[C@@H](C)O)[C@@H](C)O)C(C)C)[C@@H](C)O)C(=O)N[C@@H](CO)C(=O)N[C@@H](CO)C(N)=O [F9D/A12D]
[1]
  MIC: 32 µM (≈ 95.7 µg/mL)
[2]
  [θ]222, benign: −2319.89 degree·cm^2·dmol^−1
  [θ]222, 50% TFE: −19,328.6 degree·cm^2·dmol^−1
  α-Helix (%), 50% TFE (relative helicity): 38.26%
  α-Helix (%), benign: 4.6%
[3]
  tR (RP-HPLC retention time), relative hydrophobicity: 40.04 min
[4]
  IC50: 38.8 ± 2.9 µM
[5]
  IC50: 125 ± 3.7 µM
[6]
  IC50: 42.4 ± 3 µM
[7]
  IC50: 59.8 ± 0.5 µM
[8]
  MIC: 125 µM (≈ 374 µg/mL)
[9]
  MIC: 64 µM (≈ 191 µg/mL)
[10]
  MIC: 125 µM (≈ 374 µg/mL)
[11]
  MHC (minimal hemolytic concentration): 250 µM

## CC[C@H](C)[C@H](NC(=O)[C@H](C)NC(=O)[C@H](CCCCN)NC(=O)[C@H](CC(C)C)NC(=O)[C@H](C)NC(=O)[C@@H](NC(=O)[C@H](Cc1c[nH]cn1)NC(=O)[C@H](CC(C)C)NC(=O)[C@@H](NC(=O)[C@H](NC(=O)[C@@H](CCCCN)NC(=O)[C@H](CCCCN)NC(=O)[C@H](C)NC(=O)[C@@H](CO)NC(=O)[C@H](CCCCN)NC(=O)[C@H](Cc1ccccc1)NC(=O)[C@@H](NC(=O)[C@H](CCCCN)NC(=O)[C@H](CC(C)C)NC(=O)[C@H](Cc1ccccc1)NC(=O)[C@H](CO)NC(=O)[C@H](CCCCN)NC(=O)[C@H](Cc1c[nH]c2ccccc12)NC(=O)[C@H](CCCCN)NC(C)=O)[C@@H](C)O)[C@H](C)O)C(C)C)[C@@H](C)O)C(=O)N[C@@H](CO)C(=O)N[C@@H](CO)C(N)=O [S11D/K14D/T15D]
[1]
  MIC: 125 µM (≈ 374 µg/mL)
[2]
  [θ]222, benign: −2845.85 degree·cm^2·dmol^−1
  [θ]222, 50% TFE: −19,537.5 degree·cm^2·dmol^−1
  α-Helix (%), 50% TFE (relative helicity): 38.67%
  α-Helix (%), benign: 5.6%
[3]
  tR (RP-HPLC retention time), relative hydrophobicity: 39.59 min
[4]
  IC50: 56.8 ± 3.3 µM
[5]
  IC50: 45.5 ± 5.6 µM
[6]
  IC50: 54.2 ± 1.2 µM
[7]
  IC50: 41.1 ± 0.5 µM
[8]
  MIC: 64 µM (≈ 191 µg/mL)
[9]
  MIC: 16 µM (≈ 47.9 µg/mL)
[10]
  MIC: 125 µM (≈ 374 µg/mL)
[11]
  MHC (minimal hemolytic concentration): 250 µM

## CC[C@H](C)[C@H](NC(=O)[C@H](C)NC(=O)[C@H](CCCCN)NC(=O)[C@H](CC(C)C)NC(=O)[C@H](C)NC(=O)[C@@H](NC(=O)[C@H](Cc1c[nH]cn1)NC(=O)[C@H](CC(C)C)NC(=O)[C@@H](NC(=O)[C@@H](NC(=O)[C@H](CCCCN)NC(=O)[C@H](CCCCN)NC(=O)[C@@H](C)NC(=O)[C@H](CO)NC(=O)[C@H](CCCCN)NC(=O)[C@H](Cc1ccccc1)NC(=O)[C@@H](NC(=O)[C@H](CCCCN)NC(=O)[C@H](CC(C)C)NC(=O)[C@H](Cc1ccccc1)NC(=O)[C@H](CO)NC(=O)[C@H](CCCCN)NC(=O)[C@H](Cc1c[nH]c2ccccc12)NC(=O)[C@H](CCCCN)NC(C)=O)[C@@H](C)O)[C@@H](C)O)C(C)C)[C@@H](C)O)C(=O)N[C@@H](CO)C(=O)N[C@@H](CO)C(N)=O [Peptide A12D]
[1]
  MIC: 16 µM (≈ 47.9 µg/mL)
[2]
  [θ]222, benign: −4130.9 degree·cm^2·dmol^−1
  [θ]222, 50% TFE: −35,785.1 degree·cm^2·dmol^−1
  α-Helix (%), 50% TFE (relative helicity): 70.83%
  α-Helix (%), benign: 8.2%
[3]
  tR (RP-HPLC retention time), relative hydrophobicity: 41.46 min
[4]
  IC50: 29.9 ± 4.8 µM
[5]
  IC50: 45.1 ± 1 µM
[6]
  IC50: 15.5 ± 1.7 µM
[7]
  IC50: 28.8 ± 0.8 µM
[8]
  MIC: 64 µM (≈ 191 µg/mL)
[9]
  MIC: 16 µM (≈ 47.9 µg/mL)
[10]
  MIC: 32 µM (≈ 95.7 µg/mL)
[11]
  MHC (minimal hemolytic concentration): 125 µM
